The source made the active and inactive calls. No cut-off for these calls is given here.
How the values were obtained:
[1] = target: Serine/threonine-protein kinase PLK3 (Homo sapiens, UniProt Q9H4B4); test: Inhibition of human PLK3 using ATF2 as substrate incubated for 40 mins in presence of [gamma-33P]ATP/Mg acetate by scintillation counting analysis
[2] = Selectivity ratio of IC50 for inhibition of human PLK3 using ATF2 as substrate to IC50 for inhibition of human PLK1 using ATF2 as substrate
[3] = target: Myosin-IIIb (Homo sapiens) (UniProt Q8WXR4); test: Inhibition of human MYO3B assessed as residual activity at 10 uM by kinome selectivity profiling analysis relative to control
[4] = target: Serine/threonine-protein kinase PLK2 (Homo sapiens, UniProt Q9NYY3); test: Inhibition of human PLK2 assessed as residual activity at 10 uM by kinome selectivity profiling analysis relative to control
[5] = target: Serine/threonine-protein kinase PLK4 (Homo sapiens) (UniProt O00444); test: Inhibition of human PLK4 assessed as residual activity at 10 uM by kinome selectivity profiling analysis
[6] = target: Serine/threonine-protein kinase PLK4 (Homo sapiens) (UniProt O00444); test: Inhibition of human PLK4 assessed as residual activity at 10 uM by kinome selectivity profiling analysis relative to control
[7] = target: Glycogen synthase kinase-3 beta (Homo sapiens) (UniProt P49841); test: Inhibition of human GSK-3beta assessed as residual activity at 10 uM by kinome selectivity profiling analysis relative to control
[8] = target: Aurora kinase A (Homo sapiens) (UniProt O14965); test: Inhibition of human Aurora-A assessed as residual activity at 10 uM by kinome selectivity profiling analysis relative to control
[9] = target: Cyclin-dependent kinase 6 (Homo sapiens) (UniProt Q00534); test: Inhibition of human CDK6 assessed as residual activity at 10 uM by kinome selectivity profiling analysis relative to control
[10] = target: TRAF2 and NCK-interacting protein kinase (Homo sapiens) (UniProt Q9UKE5); test: Inhibition of human TNIK assessed as residual activity at 10 uM by kinome selectivity profiling analysis relative to control
[11] = target: Calcium/calmodulin-dependent protein kinase kinase 1 (Homo sapiens) (UniProt Q8N5S9); test: Inhibition of human CaMKK1 assessed as residual activity at 10 uM by kinome selectivity profiling analysis relative to control
[12] = target: Dual specificity protein kinase CLK2 (Homo sapiens) (UniProt P49760); test: Inhibition of human CLK2 assessed as residual activity at 10 uM by kinome selectivity profiling analysis relative to control
[13] = organism: Homo sapiens; test: Inhibition of human HRI assessed as residual activity at 10 uM by kinome selectivity profiling analysis relative to control
[14] = target: Cytochrome P450 1A2 (Homo sapiens, UniProt P05177); test: Inhibition of CYP1A2 in human liver microsomes using phenacetin as substrate preincubated with compound followed by substrate addition measured after 10 mins in presence of NADPH by LC-MS/MS analysis; type: ADME, Microsome
[15] = target: Cytochrome P450 3A4 (Homo sapiens, UniProt P08684); test: Inhibition of CYP3A4 in human liver microsomes using testosterone as substrate preincubated with compound followed by substrate addition measured after 10 mins in presence of NADPH by LC-MS/MS analysis; type: ADME, Microsome
[16] = C0 in C57BL/6 mouse at 1 mg/kg, iv measured for 0.5 to 12 htr by LC-MS/MS analysis; type: ADME, organism-based; settings: in vivo, time 0.5-12 hrs
[17] = AUC (0 to t) in C57BL/6 mouse at 1 mg/kg, iv measured for 0.5 to […] htr by LC-MS/MS analysis; type: ADME, organism-based; settings: in vivo, time 0.5-12 hrs
[18] = AUC (0 to infinity) in C57BL/6 mouse at 1 mg/kg, iv measured for 0.5 to 12 htr by LC-MS/MS analysis; type: ADME, organism-based; settings: in vivo, time 0.5-12 hrs
[19] = Volume of distribution at steady state in C57BL/6 mouse at 1 mg/kg, iv measured for 0.5 to 12 htr by LC-MS/MS analysis; type: ADME, organism-based; settings: in vivo, time 0.5-12 hrs, read-out: Vdss
[20] = Half life in C57BL/6 mouse at 10 mg/kg, po measured for 0.5 to 12 htr by LC-MS/MS analysis; type: ADME, organism-based; settings: in vivo, time 0.5-12 hrs
[21] = AUC (0 to t) in C57BL/6 mouse at 10 mg/kg, po measured for 0.5 to […] htr by LC-MS/MS analysis; type: ADME, organism-based; settings: in vivo, time 0.5-12 hrs
[22] = Oral bioavailability in C57BL/6 mouse at 10 mg/kg measured for 0.5 to […] htr by LC-MS/MS analysis; type: ADME, organism-based; settings: in vivo, time 0.5-12 hrs
[23] = Metabolic stability in mouse liver microsomes assessed as half life preincubated for 5 mins followed by NADPH addition by LC-MS/MS analysis; type: ADME, Microsome
[24] = Metabolic stability in mouse liver microsomes assessed as intrinsic clearance preincubated for 5 mins followed by NADPH addition by LC-MS/MS analysis; type: ADME, Microsome; settings: read-out: CLH
[25] = Metabolic stability in human liver microsomes assessed as intrinsic clearance in microsome measured per mg protein preincubated for 5 mins followed by NADPH addition by LC-MS/MS analysis; type: ADME; settings: read-out: CLH
[26] = Metabolic stability in dog liver microsomes assessed as intrinsic clearance in microsome measured per mg protein preincubated for 5 mins followed by NADPH addition by LC-MS/MS analysis; type: ADME, Canis lupus familiaris; settings: read-out: CLH
[27] = Toxicity in BALB/c mouse xenografted with human K562 cells assessed as change in body weight at 10 to 20 mg/kg, IG for 11 days treated on every 3 to 4 days; type: organism-based; settings: in vivo, po, 264 h, dose 10-20 mg/kg, time 11 day
[28] = tested on: HEK-293T; test: Cytotoxicity against HEK293T cells by CCK8 assay; type: toxicity, cell-based; settings: human, dose 0.1-30 µM
[29] = Effect on mitochondrial membrane integrity in HEK293T cells at 10 uM incubated for 24 hrs by JC-1 dye based analysis; type: toxicity, cell-based; settings: human, hek-293t
[30] = Acute hematopoietic toxicity in mouse assessed as effect on biochemical indices at 500 mg/kg, IG qd treated for 7 days; type: organism-based; settings: in vivo, po, 168 h, time 7 day
[31] = Acute toxicity in mouse assessed as effect on behaviour at 500 mg/kg, IG qd treated for 7 days; type: organism-based; settings: in vivo, po, 168 h, time 7 day
[32] = Acute toxicity in mouse assessed as damage in heart at 500 mg/kg, IG qd treated for 7 days by H and E staining based analysis; type: organism-based; settings: in vivo, po, 168 h, time 7 day
[33] = Acute toxicity in mouse assessed as damage in liver at 500 mg/kg, IG qd treated for 7 days by H and E staining based analysis; type: organism-based; settings: in vivo, po, 168 h, time 7 day
[34] = Acute toxicity in mouse assessed as damage in spleen at 500 mg/kg, IG qd treated for 7 days by H and E staining based analysis; type: organism-based; settings: in vivo, po, 168 h, time 7 day
[35] = Acute hematopoietic toxicity in mouse assessed as effect on white blood cells at 500 mg/kg, IG qd treated for 7 days; type: organism-based; settings: in vivo, po, 168 h, time 7 day
[36] = Acute hematopoietic toxicity in mouse assessed as effect on platelets at 500 mg/kg, IG qd treated for 7 days; type: organism-based; settings: in vivo, po, 168 h, time 7 day
[37] = tested on: PC-9; test: cells; settings: Homo sapiens
[38] = tested on: KG-1; test: cells; settings: Homo sapiens

Chain of Serine/threonine-protein kinase PLK4 (Homo sapiens) (O00444 whole entry): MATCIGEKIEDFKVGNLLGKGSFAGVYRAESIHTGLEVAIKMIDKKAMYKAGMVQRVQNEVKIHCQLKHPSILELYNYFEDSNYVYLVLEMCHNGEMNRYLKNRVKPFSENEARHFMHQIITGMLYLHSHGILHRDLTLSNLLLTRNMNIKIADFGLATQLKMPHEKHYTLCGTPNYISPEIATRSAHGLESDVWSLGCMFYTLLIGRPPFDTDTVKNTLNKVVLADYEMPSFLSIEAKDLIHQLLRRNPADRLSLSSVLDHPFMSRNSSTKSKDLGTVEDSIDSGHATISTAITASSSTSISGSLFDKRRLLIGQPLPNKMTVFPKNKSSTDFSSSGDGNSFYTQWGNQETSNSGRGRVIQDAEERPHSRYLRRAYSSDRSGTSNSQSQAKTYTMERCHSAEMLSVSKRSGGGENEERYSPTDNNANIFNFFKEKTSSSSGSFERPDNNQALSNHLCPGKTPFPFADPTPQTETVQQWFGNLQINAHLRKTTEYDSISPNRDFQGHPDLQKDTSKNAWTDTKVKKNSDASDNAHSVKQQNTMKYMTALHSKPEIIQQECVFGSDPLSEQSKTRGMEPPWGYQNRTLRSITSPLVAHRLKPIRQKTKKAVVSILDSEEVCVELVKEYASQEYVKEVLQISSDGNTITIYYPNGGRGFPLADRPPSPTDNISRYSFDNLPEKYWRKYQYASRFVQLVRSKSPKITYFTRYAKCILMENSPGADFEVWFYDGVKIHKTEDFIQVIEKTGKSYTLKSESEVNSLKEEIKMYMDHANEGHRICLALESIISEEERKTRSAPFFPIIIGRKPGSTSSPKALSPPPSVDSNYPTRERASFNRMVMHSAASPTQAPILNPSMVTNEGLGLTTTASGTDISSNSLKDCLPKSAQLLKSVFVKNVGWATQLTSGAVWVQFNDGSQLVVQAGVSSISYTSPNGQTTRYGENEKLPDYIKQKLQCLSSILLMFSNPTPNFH
Chain of Cyclin-dependent kinase 6 (Homo sapiens) (Q00534 whole entry): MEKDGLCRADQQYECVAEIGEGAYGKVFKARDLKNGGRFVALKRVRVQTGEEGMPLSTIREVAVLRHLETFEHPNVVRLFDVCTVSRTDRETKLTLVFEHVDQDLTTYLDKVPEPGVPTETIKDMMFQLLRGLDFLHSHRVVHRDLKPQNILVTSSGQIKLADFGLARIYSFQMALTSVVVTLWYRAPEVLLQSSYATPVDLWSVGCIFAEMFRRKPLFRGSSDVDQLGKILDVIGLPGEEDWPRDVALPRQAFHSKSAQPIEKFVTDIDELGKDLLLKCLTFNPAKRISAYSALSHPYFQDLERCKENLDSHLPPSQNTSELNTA
Chain of TRAF2 and NCK-interacting protein kinase (Homo sapiens) (Q9UKE5 whole entry, looked up): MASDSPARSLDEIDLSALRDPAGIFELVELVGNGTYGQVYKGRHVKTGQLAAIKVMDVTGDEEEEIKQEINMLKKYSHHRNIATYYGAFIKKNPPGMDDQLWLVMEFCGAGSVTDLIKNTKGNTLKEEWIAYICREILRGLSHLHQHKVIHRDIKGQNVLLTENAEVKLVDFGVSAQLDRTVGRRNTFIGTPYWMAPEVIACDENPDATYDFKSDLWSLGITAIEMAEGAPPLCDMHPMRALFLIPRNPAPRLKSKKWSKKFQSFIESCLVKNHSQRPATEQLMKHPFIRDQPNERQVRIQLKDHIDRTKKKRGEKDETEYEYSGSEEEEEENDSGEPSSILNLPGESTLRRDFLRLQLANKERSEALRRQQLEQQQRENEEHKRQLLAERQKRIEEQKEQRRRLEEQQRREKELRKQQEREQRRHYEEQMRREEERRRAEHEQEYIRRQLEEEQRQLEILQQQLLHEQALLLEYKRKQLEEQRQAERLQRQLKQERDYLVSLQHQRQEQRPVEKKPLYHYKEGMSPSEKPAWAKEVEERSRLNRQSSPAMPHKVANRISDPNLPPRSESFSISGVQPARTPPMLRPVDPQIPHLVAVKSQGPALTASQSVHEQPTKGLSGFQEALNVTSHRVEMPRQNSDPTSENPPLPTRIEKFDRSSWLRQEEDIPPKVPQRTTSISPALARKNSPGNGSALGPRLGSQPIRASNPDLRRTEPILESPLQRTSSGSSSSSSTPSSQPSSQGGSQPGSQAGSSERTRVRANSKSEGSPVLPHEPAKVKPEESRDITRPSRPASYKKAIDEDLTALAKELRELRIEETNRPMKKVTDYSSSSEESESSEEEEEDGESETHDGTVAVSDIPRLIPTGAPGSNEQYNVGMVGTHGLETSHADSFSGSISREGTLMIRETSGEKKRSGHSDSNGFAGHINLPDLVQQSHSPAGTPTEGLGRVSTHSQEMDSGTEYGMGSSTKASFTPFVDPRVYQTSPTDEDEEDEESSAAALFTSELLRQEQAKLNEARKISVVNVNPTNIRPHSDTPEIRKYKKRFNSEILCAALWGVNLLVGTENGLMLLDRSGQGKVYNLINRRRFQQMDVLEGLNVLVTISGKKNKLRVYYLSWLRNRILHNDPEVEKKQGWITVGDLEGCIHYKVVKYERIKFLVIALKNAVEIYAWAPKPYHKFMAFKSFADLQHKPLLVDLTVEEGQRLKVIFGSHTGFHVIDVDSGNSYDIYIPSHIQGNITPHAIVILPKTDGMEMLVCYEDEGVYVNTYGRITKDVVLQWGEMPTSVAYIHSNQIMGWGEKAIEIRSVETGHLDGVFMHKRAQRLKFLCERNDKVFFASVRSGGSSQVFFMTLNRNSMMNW
Chain of Myosin-IIIb (Homo sapiens) (Q8WXR4 whole entry): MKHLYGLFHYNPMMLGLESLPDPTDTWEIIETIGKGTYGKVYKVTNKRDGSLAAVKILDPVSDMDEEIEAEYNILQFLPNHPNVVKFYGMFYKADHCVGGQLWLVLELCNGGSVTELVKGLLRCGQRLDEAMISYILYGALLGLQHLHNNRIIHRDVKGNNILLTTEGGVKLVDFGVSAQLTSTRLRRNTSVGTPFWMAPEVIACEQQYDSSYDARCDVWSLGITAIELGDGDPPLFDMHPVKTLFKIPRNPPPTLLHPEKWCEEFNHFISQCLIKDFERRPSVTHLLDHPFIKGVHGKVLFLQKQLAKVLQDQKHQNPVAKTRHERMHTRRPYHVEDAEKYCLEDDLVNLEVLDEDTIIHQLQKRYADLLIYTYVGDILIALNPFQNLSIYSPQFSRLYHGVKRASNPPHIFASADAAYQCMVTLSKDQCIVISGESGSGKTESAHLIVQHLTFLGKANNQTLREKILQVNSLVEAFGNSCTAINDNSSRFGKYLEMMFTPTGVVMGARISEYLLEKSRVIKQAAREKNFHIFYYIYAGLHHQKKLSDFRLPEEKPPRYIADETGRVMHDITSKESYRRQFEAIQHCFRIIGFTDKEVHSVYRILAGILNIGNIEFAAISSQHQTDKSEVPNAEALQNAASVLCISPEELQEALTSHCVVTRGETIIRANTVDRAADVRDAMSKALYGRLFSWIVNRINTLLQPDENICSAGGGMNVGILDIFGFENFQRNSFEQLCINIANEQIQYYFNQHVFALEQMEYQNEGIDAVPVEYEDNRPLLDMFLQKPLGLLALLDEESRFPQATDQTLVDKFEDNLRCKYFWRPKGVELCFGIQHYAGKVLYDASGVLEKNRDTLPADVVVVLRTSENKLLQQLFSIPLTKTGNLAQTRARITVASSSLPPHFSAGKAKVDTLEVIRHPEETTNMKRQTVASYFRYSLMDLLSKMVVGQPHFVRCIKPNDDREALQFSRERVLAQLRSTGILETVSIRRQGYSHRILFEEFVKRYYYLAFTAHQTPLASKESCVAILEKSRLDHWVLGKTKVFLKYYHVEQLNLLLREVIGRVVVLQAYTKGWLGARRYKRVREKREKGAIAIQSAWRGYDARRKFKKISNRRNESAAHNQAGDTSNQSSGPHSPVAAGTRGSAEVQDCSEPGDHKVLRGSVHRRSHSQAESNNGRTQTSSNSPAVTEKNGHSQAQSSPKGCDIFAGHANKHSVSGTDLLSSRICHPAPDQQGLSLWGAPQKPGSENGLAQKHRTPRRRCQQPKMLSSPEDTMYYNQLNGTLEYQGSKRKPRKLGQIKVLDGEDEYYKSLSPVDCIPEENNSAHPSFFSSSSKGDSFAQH
Chain of Calcium/calmodulin-dependent protein kinase kinase 1 (Homo sapiens) (Q8N5S9 whole entry, looked up): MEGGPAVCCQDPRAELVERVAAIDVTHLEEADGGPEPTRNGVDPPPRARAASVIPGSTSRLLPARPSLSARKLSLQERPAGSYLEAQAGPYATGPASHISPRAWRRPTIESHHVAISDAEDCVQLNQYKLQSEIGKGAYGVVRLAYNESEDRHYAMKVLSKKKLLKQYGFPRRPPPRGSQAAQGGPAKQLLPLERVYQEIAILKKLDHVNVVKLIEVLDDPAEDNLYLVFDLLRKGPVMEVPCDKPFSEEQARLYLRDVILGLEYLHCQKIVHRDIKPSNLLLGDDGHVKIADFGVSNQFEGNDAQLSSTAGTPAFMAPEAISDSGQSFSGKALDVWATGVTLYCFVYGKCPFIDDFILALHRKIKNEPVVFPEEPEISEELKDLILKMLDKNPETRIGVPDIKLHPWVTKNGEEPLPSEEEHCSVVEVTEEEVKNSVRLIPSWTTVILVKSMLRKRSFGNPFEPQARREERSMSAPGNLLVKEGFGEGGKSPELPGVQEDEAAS
Chain of Dual specificity protein kinase CLK2 (Homo sapiens) (P49760 whole entry, looked up): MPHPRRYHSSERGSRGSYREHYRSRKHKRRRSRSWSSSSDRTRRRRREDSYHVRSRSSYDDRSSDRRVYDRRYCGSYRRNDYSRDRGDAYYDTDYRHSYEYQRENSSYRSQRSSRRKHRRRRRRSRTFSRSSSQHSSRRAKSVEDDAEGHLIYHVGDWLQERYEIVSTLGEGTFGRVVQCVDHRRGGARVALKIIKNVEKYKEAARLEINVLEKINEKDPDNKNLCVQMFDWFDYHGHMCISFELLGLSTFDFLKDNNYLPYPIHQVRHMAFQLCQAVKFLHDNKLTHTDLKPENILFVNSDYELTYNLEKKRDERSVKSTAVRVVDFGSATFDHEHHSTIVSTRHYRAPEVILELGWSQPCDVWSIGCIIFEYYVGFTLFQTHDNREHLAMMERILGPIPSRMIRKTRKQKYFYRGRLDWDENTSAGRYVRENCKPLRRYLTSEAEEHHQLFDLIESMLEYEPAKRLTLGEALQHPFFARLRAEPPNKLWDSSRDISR

`CC[C@@H]1C(=O)N(C)c2cnc(Nc3cc(N4CCN(C)CC4)cc(Cl)c3OCCCO)nc2N1C1CCCC1` gave an IC50 [1] of 3.95 µM, a ratio [2] of 197 and an Activity [3] of 44%. The Activity [4] was 48%, the inhibition [5] was “inactive” and the Activity [6] was 104%. The Activity [7] was 112%, the Activity [8] was 110% and the Activity [9] was 103%. For the same molecule, the Activity [10] was 77%, the Activity [11] was 70% and the Activity [12] was 70%. The Activity [13] was 54%, the IC50 [14] was > 10 µM and the IC50 [15] was > 10 µM. The C0 [16] was 328 ng/mL, the AUC(0-t) [17] was 181 ng·h/mL and the AUC(0-inf) [18] was 183 ng·h/mL. The Vd [19] was 3.6 L/kg, the half-life [20] was 72 min and the AUC(0-t) [21] was 820 ng·h/mL. The bioavailability [22] was 45%, the half-life [23] was 16.6 min and the CLint scaled [24] was 829 mL/min/kg. For the same molecule, the microsomal CLint [25] was 68.3 µL/min/mg, the microsomal CLint [26] was 190 µL/min/mg and the Activity [27] was “Non-toxic”. The Activity [28] was “Dose-dependent-effect”, the Activity [29] was “Non-toxic” and the Activity [30] was “Non-toxic”. The Activity [31] was “Non-toxic”, the Activity [32] was “Non-toxic” and the Activity [33] was “Non-toxic”. The Activity [34] was “Non-toxic”, the Activity [35] was “Non-toxic” and the Activity [36] was “Non-toxic”. For the same molecule, the IC50 [37] was 775 nM and the IC50 [38] was > 10 µM.
